Results as given in paper PMC6332093, “Development of Radiolabeled Membrane Type-1 Matrix Metalloproteinase Activatable Cell Penetrating Peptide Imaging Probes” (Molecules, 2015).
Where two headings read alike, the source gives them in different places. Square brackets hold non-standard residues; d marks the D form. Peptide text beside a SMILES is read from it. * marks the point of attachment. DOTA = O=C(O)CN1CCN(CC(=O)O)CCN(CC(=O)*)CCN(CC(=O)O)CC1; AEA = NCCOCC(=O)O

How the values were obtained:
in vivo = details: mouse; for tissue uptake: 10 nmol, total radioactivity
Method: (§1) Here, a single isotope labeled probe ^177Lu-ACPP-B was employed in a pilot in vivo study.
Figure 6 Blood kinetics of ^177Lu-ACPP-B in MI-mice (n = 3). The data are mean %ID/g ± SD and fitted to the 2-phase exponential decay function Y = span1 × exp(−K1 × X) + span2 × exp(−K2 × X) + Plateau. Span1 = 2.61%ID/g, K1 = 1.99 min^−1, Span2 = 7.35%ID/g, K2 = 27.1 min^−1.
(§2) Biodistribution experiments were performed on MI-mice (n = 5 per probe) by i.v.-injection of ^177Lu-ACPP-B (10 nmol/100 µL, ca. 4.0 MBq ^177Lu), or ^177Lu-CPP-B (10 nmol/100 µL, ca. 4.0 MBq ^177Lu). For animals injected with ^177Lu-ACPP-B, blood samples were withdrawn from the vena saphena at selected time points (3, 9, 27, and 81 min), weighed, and diluted to 1 mL with MilliQ water. The mice were anesthetized with isoflurane 5 h after i.v.-injection, subjected to 2% (w/v) Evans Blue i.v.-injection (50 mg/kg) and sacrificed 2 min later by cervical dislocation. Organs and tissues of interest were harvested and weighed. The hearts were cooled to 4 °C, cut in 1 mm slices from apex to base. Infarct, border, and remote areas were isolated based on Evans Blue staining. The ^177Lu radioactivity of all samples was measured in a γ-counter (Wizard 1480; PerkinElmer) along with standards to determine the injected dose per gram (%ID/g). The energy window was set to 155–380 keV. The average probe concentration at time 0 (C0) was calculated by fitting the blood clearance data to the 2-phase exponential decay function Y = span1 × exp(−K1 × X) + span2 × exp(−K2 × X) + Plateau using GraphPad Prism. The area under the curve (AUC) was determined and the blood half-life, the time point at which the AUC reaches 50% of the total AUC, was subsequently derived using MatLab. The average volume of distribution was calculated using the formula VD = dose/(mean body weight × C0) [L/kg].

[1] = Biodistribution in mouse model of myocardial infarction; format: in vivo; details: iv, total radioactivity, 5 h post-injection; for tissue uptake at 5 h: 10 nmol i.v., mean ± SD
Method: An in vivo pilot study was performed to assess the in vivo biodistribution of ACPP-B and CPP-B, 5 h post-injection, in a mouse model of myocardial infarction (MI). The conditions were similar to the earlier study with the MMP-2/9 sensitive probe ^177Lu/^125I-ACPP-2/9 [1] to facilitate comparison. We aimed to characterize the in vivo biodistribution of ACPP-B using a dual-isotope approach with ^177Lu, labeled to the polycationic domain, and ^125I, labeled to the polyanionic domain, as orthogonal radiolabels (see Supplemental Information for performed iodination procedures). […] Unfortunately, a >95% radiochemical purity could not be achieved by solid phase extraction (Figure S5), and desalting strategies to remove ^125I could not be applied due to the low molecular weight of the peptide. Therefore, re-design of the ACPP-B peptide structure, to prevent side-reactions during iodination, may enable dual-isotope studies. Hereto, the cysteine residue can be acetylated, but oxidation of the sulfur atom may still occur. Furthermore, this conversion results in a more hydrophobic residue that may impact the MT1-MMP sensitivity of the probe. Substitution of the cysteine by a serine residue will possibly be a more attractive option. Alternatively, iodine may be introduced specifically to the N-terminus via coupling of a ^125I-SHPP moiety (following a similar approach as proposed for iodination of ACPP-C (Figure 1)).
as §1
MI was induced by permanent ligation of the left anterior descending coronary artery (LAD) using published procedures. In short, animals were subcutaneously injected with buprenorphine (0.1 mg/kg) and 30 min later anesthetized with isoflurane. Animals were intubated and ventilated with 100% oxygen with a rodent respirator. After left thoracotomy between ribs four and five, the LAD was ligated with a 6–0 prolene suture. The chest and skin were closed with 5–0 silk sutures. The animal’s temperature was continuously measured rectally and maintained at 36.5–37.5 °C during surgery. After surgery, animals were allowed to recover at 30 °C overnight.
as §2

[2] = blood, MI-mice 10 days after MI, γ-counting, n = 5, read-out: Biodistribution, Blood
[3] = brain, MI-mice, n = 5, read-out: Biodistribution, Brain
[4] = fat, MI-mice, n = 5, read-out: Biodistribution, Fat
[5] = heart, infarct area, MI-mice, n = 5, read-out: Biodistribution, Heart, infarct
[6] = heart, remote myocardium, MI-mice, n = 5, read-out: Biodistribution, Heart, remote
[7] = kidney, MI-mice, n = 5, read-out: Biodistribution, Kidney
[8] = liver, MI-mice, n = 5, read-out: Biodistribution, Liver
[9] = lung, MI-mice, n = 5, read-out: Biodistribution, Lung
[10] = muscle, MI-mice, n = 5, read-out: Biodistribution, Muscle
[11] = spleen, MI-mice, n = 5, read-out: Biodistribution, Spleen
[12] = thigh bone, MI-mice, n = 5, read-out: Biodistribution, Thigh bone

Row | SMILES | blood half-life (in vivo; iv) | tissue to tissue ratio at 5 h ([1]; kidney and liver, ^177Lu label, 10 nmol, MI-mice, from Table 1) | tissue uptake at 5 h [1, 2] [%ID/g] | tissue uptake at 5 h [1, 3] [%ID/g] | tissue uptake at 5 h [1, 4] [%ID/g] | tissue uptake at 5 h [1, 5] [%ID/g] | tissue uptake at 5 h [1, 6] [%ID/g] | tissue uptake at 5 h [1, 7] [%ID/g] | tissue uptake at 5 h [1, 8] [%ID/g] | tissue uptake at 5 h [1, 9] [%ID/g] | tissue uptake at 5 h [1, 10] [%ID/g] | tissue uptake at 5 h [1, 11] [%ID/g] | tissue uptake at 5 h [1, 12] [%ID/g] | K1 of 2-phase exponential decay fit of blood kinetics (in vivo) [min⁻¹] | K2 of 2-phase exponential decay fit of blood kinetics (in vivo) [min⁻¹] | tissue uptake (in vivo; iv, Span1 of 2-phase exponential decay fit of blood kinetics) [%ID/g] | tissue uptake (in vivo; iv, Span2 of 2-phase exponential decay fit of blood kinetics) [%ID/g]
1 | CC(=O)N[C@H](Cc1ccc(O)cc1)C(=O)N[C@H](CCC(=O)O)C(=O)N[C@H](CCC(=O)O)C(=O)N[C@H](CCC(=O)O)C(=O)N[C@H](CCC(=O)O)C(=O)N[C@H](CCC(=O)O)C(=O)N[C@H](CCC(=O)O)C(=O)N[C@H](CCC(=O)O)C(=O)N[C@H](CCC(=O)O)C(=O)N[C@H](CCC(=O)O)C(=O)NCCOCC(=O)N[C@@H](CS)C(=O)N[C@@H](CCCNC(=N)N)C(=O)N1CCC[C@H]1C(=O)N[C@@H](C)C(=O)N[C@@H](Cc1c[nH]cn1)C(=O)N[C@@H](CC(C)C)C(=O)N[C@@H](CCCNC(=N)N)C(=O)N[C@@H](CC(=O)O)C(=O)N[C@@H](CO)C(=O)NCC(=O)NCCOCC(=O)N[C@H](CCCNC(=N)N)C(=O)N[C@H](CCCNC(=N)N)C(=O)N[C@H](CCCNC(=N)N)C(=O)N[C@H](CCCNC(=N)N)C(=O)N[C@H](CCCNC(=N)N)C(=O)N[C@H](CCCNC(=N)N)C(=O)N[C@H](CCCNC(=N)N)C(=O)N[C@H](CCCNC(=N)N)C(=O)N[C@H](CCCNC(=N)N)C(=O)N[C@H](CCCCNC(=O)CN1CCN(CC(=O)O)CCN(CC(=O)O)CCN(CC(=O)O)CC1)C(N)=O [ACPP-B, Ac-y-e9-X-CRPAHLRDSG-X-r9-k(DOTA)-NH2] (Ac-[dY][dE][dE][dE][dE][dE][dE][dE][dE][dE][AEA]CRPAHLRDSG[AEA][dR][dR][dR][dR][dR][dR][dR][dR][dR][dK](DOTA)-NH2) | ~ 24 min | 14.9 |  |  |  |  |  |  |  |  |  |  |  |  |  |  | 
2 | CC(C)C[C@H](N)C(=O)N[C@@H](CCCNC(=N)N)C(=O)N[C@@H](CC(=O)O)C(=O)N[C@@H](CO)C(=O)NCC(=O)NCCOCC(=O)N[C@H](CCCNC(=N)N)C(=O)N[C@H](CCCNC(=N)N)C(=O)N[C@H](CCCNC(=N)N)C(=O)N[C@H](CCCNC(=N)N)C(=O)N[C@H](CCCNC(=N)N)C(=O)N[C@H](CCCNC(=N)N)C(=O)N[C@H](CCCNC(=N)N)C(=O)N[C@H](CCCNC(=N)N)C(=O)N[C@H](CCCNC(=N)N)C(=O)N[C@H](CCCCNC(=O)CN1CCN(CC(=O)O)CCN(CC(=O)O)CCN(CC(=O)O)CC1)C(N)=O [^177Lu-CPP-B, metal not drawn] (H-LRDSG[AEA][dR][dR][dR][dR][dR][dR][dR][dR][dR][dK](DOTA)-NH2) |  |  | 0.14 ± 0.06 | 0.01 ± 0.01 | 0.16 ± 0.07 | 1.69 ± 0.5 | 0.32 ± 0.11 | 10.1 ± 1.61 | 33.2 ± 3.98 | 0.67 ± 0.25 | 0.1 ± 0.02 | 4.17 ± 0.82 | 2.61 ± 0.25 |  |  |  | 
3 | CC(=O)N[C@H](Cc1ccc(O)cc1)C(=O)N[C@H](CCC(=O)O)C(=O)N[C@H](CCC(=O)O)C(=O)N[C@H](CCC(=O)O)C(=O)N[C@H](CCC(=O)O)C(=O)N[C@H](CCC(=O)O)C(=O)N[C@H](CCC(=O)O)C(=O)N[C@H](CCC(=O)O)C(=O)N[C@H](CCC(=O)O)C(=O)N[C@H](CCC(=O)O)C(=O)NCCOCC(=O)N[C@@H](CS)C(=O)N[C@@H](CCCNC(=N)N)C(=O)N1CCC[C@H]1C(=O)N[C@@H](C)C(=O)N[C@@H](Cc1c[nH]cn1)C(=O)N[C@@H](CC(C)C)C(=O)N[C@@H](CCCNC(=N)N)C(=O)N[C@@H](CC(=O)O)C(=O)N[C@@H](CO)C(=O)NCC(=O)NCCOCC(=O)N[C@H](CCCNC(=N)N)C(=O)N[C@H](CCCNC(=N)N)C(=O)N[C@H](CCCNC(=N)N)C(=O)N[C@H](CCCNC(=N)N)C(=O)N[C@H](CCCNC(=N)N)C(=O)N[C@H](CCCNC(=N)N)C(=O)N[C@H](CCCNC(=N)N)C(=O)N[C@H](CCCNC(=N)N)C(=O)N[C@H](CCCNC(=N)N)C(=O)N[C@H](CCCCNC(=O)CN1CCN(CC(=O)O)CCN(CC(=O)O)CCN(CC(=O)O)CC1)C(N)=O [^177Lu-ACPP-B, metal not drawn] (Ac-[dY][dE][dE][dE][dE][dE][dE][dE][dE][dE][AEA]CRPAHLRDSG[AEA][dR][dR][dR][dR][dR][dR][dR][dR][dR][dK](DOTA)-NH2) |  |  | 0.08 ± 0.03 | 0.01 ± 0.01 | 0.43 ± 0.28 | 0.75 ± 0.15 | 0.11 ± 0.02 | 100 ± 13 | 6.76 ± 0.91 | 0.38 ± 0.09 | 0.09 ± 0.07 | 0.77 ± 0.13 | 1.92 ± 0.73 | 1.99 | 27.1 | 2.61 | 7.35
